Results as given in PubChem BioAssay AID1963441 (Molecular Pharmacology Branch, DTP, NCI, 2024).
Where “and” joins values, the source holds several entries; their conditions need not be identical. Equal values may be shown once.

System: NCI-H1876 complex spheroid growth, % test/control
Assay: Anticancer human tumor NCI-H1876 cell line growth inhibition [Asc];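 note: compound exposure lasted 7 days starting three days after seeding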;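 for viability, T/C: 100% = DMSO vehicle control wells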
Conditions: for viability, T/C: stronger effect = lower value
Method in brief: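 Stromal components (HUVEC and hMSC) are co-assembled with the cancer cells into multicellular spheroids. Drugs are then added singly or paired, at concentrations falling by half-log increments from a clinically achievable maximum, capped at 10 microM without known Cmax.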

[1] = curve of first compound, second compound 0.00316 µM
[2] = curve of first compound, second compound 0.01 µM
[3] = curve of first compound, second compound 0.0316 µM
[4] = curve of first compound, second compound 0.1 µM
[5] = curve of first compound, second compound 0.316 µM
[6] = curve of first compound, second compound 1 µM

Cn1ncnc1[C@H]1c2n[nH]c(=O)c3cc(F)cc(c23)N[C@@H]1c1ccc(F)cc1 + CNC(C)C(=O)NC1CN(S(=O)(=O)c2cccc(S(=O)(=O)N3CCC4CCC(C(=O)NC(c5ccccc5)c5ccccc5)N4C(=O)C(NC(=O)C(C)NC)C3)c2)CCC2CCC(C(=O)NC(c3ccccc3)c3ccccc3)N2C1=O
IC50 [1]: > 0.1 µM | IC50 [2]: > 0.1 µM | IC50 [3]: > 0.1 µM | IC50 [4]: > 0.1 µM | IC50 [5]: > 0.1 µM | IC50 [6]: > 0.1 µM | viability, T/C (second compound 0.00316 µM, first compound 0.000316 µM): 72.3% | viability, T/C (second compound 0.00316 µM, first compound 0.001 µM): 63.5% | viability, T/C (second compound 0.00316 µM, first compound 0.00316 µM): 68.2% | viability, T/C (second compound 0.00316 µM, first compound 0.01 µM): 55.5% | viability, T/C (second compound 0.00316 µM, first compound 0.0316 µM): 51.2% | viability, T/C (second compound 0.00316 µM, first compound 0.1 µM): 54.3% | viability, T/C (second compound 0.01 µM, first compound 0.000316 µM): 92.8% | viability, T/C (second compound 0.01 µM, first compound 0.001 µM): 103% | viability, T/C (second compound 0.01 µM, first compound 0.00316 µM): 87.6% | viability, T/C (second compound 0.01 µM, first compound 0.01 µM): 95.2% | viability, T/C (second compound 0.01 µM, first compound 0.0316 µM): 96.5% | viability, T/C (second compound 0.01 µM, first compound 0.1 µM): 95.8% | viability, T/C (second compound 0.0316 µM, first compound 0.000316 µM): 94.8% | viability, T/C (second compound 0.0316 µM, first compound 0.001 µM): 99% | viability, T/C (second compound 0.0316 µM, first compound 0.00316 µM): 104% | viability, T/C (second compound 0.0316 µM, first compound 0.01 µM): 112% | viability, T/C (second compound 0.0316 µM, first compound 0.0316 µM): 109% | viability, T/C (second compound 0.0316 µM, first compound 0.1 µM): 103% | viability, T/C (second compound 0.1 µM, first compound 0.000316 µM): 105% | viability, T/C (second compound 0.1 µM, first compound 0.001 µM): 102% | viability, T/C (second compound 0.1 µM, first compound 0.00316 µM): 97.3% | viability, T/C (second compound 0.1 µM, first compound 0.01 µM): 91.5% | viability, T/C (second compound 0.1 µM, first compound 0.0316 µM): 97.4% | viability, T/C (second compound 0.1 µM, first compound 0.1 µM): 102% | viability, T/C (second compound 0.316 µM, first compound 0.000316 µM): 97.7% | viability, T/C (second compound 0.316 µM, first compound 0.001 µM): 96.7% | viability, T/C (second compound 0.316 µM, first compound 0.00316 µM): 93.4% | viability, T/C (second compound 0.316 µM, first compound 0.01 µM): 110% | viability, T/C (second compound 0.316 µM, first compound 0.0316 µM): 115% | viability, T/C (second compound 0.316 µM, first compound 0.1 µM): 97.3% | viability, T/C (second compound 1 µM, first compound 0.000316 µM): 114% | viability, T/C (second compound 1 µM, first compound 0.001 µM): 99.1% | viability, T/C (second compound 1 µM, first compound 0.00316 µM): 90.1% | viability, T/C (second compound 1 µM, first compound 0.01 µM): 116% | viability, T/C (second compound 1 µM, first compound 0.0316 µM): 103% | viability, T/C (second compound 1 µM, first compound 0.1 µM): 104%

CCN1C(C(=O)NC23CCC(C(=O)O)(CC2)CC3)C(c2cccc(Cl)c2F)C2(C(=O)Nc3cc(Cl)ccc32)C12CCCCC2 (stereo unspecified) + CNC(C)C(=O)NC1CN(S(=O)(=O)c2cccc(S(=O)(=O)N3CCC4CCC(C(=O)NC(c5ccccc5)c5ccccc5)N4C(=O)C(NC(=O)C(C)NC)C3)c2)CCC2CCC(C(=O)NC(c3ccccc3)c3ccccc3)N2C1=O
IC50 [1]: > 3 µM | IC50 [2]: > 3 µM | IC50 [3]: > 3 µM | IC50 [4]: > 3 µM | IC50 [5]: > 3 µM | IC50 [6]: > 3 µM | viability, T/C (second compound 0.00316 µM, first compound 0.00949 µM): 115% | viability, T/C (second compound 0.00316 µM, first compound 0.03 µM): 98% | viability, T/C (second compound 0.00316 µM, first compound 0.0949 µM): 111% | viability, T/C (second compound 0.00316 µM, first compound 0.3 µM): 101% | viability, T/C (second compound 0.00316 µM, first compound 0.949 µM): 123% | viability, T/C (second compound 0.00316 µM, first compound 3 µM): 107% | viability, T/C (second compound 0.01 µM, first compound 0.00949 µM): 110% | viability, T/C (second compound 0.01 µM, first compound 0.03 µM): 99.9% | viability, T/C (second compound 0.01 µM, first compound 0.0949 µM): 104% | viability, T/C (second compound 0.01 µM, first compound 0.3 µM): 101% | viability, T/C (second compound 0.01 µM, first compound 0.949 µM): 120% | viability, T/C (second compound 0.01 µM, first compound 3 µM): 105% | viability, T/C (second compound 0.0316 µM, first compound 0.00949 µM): 105% | viability, T/C (second compound 0.0316 µM, first compound 0.03 µM): 101% | viability, T/C (second compound 0.0316 µM, first compound 0.0949 µM): 115% | viability, T/C (second compound 0.0316 µM, first compound 0.3 µM): 104% | viability, T/C (second compound 0.0316 µM, first compound 0.949 µM): 132% | viability, T/C (second compound 0.0316 µM, first compound 3 µM): 109% | viability, T/C (second compound 0.1 µM, first compound 0.00949 µM): 92.5% | viability, T/C (second compound 0.1 µM, first compound 0.03 µM): 111% | viability, T/C (second compound 0.1 µM, first compound 0.0949 µM): 101% | viability, T/C (second compound 0.1 µM, first compound 0.3 µM): 102% | viability, T/C (second compound 0.1 µM, first compound 0.949 µM): 122% | viability, T/C (second compound 0.1 µM, first compound 3 µM): 103% | viability, T/C (second compound 0.316 µM, first compound 0.00949 µM): 104% | viability, T/C (second compound 0.316 µM, first compound 0.03 µM): 102% | viability, T/C (second compound 0.316 µM, first compound 0.0949 µM): 98.3% | viability, T/C (second compound 0.316 µM, first compound 0.3 µM): 105% | viability, T/C (second compound 0.316 µM, first compound 0.949 µM): 131% | viability, T/C (second compound 0.316 µM, first compound 3 µM): 107% | viability, T/C (second compound 1 µM, first compound 0.00949 µM): 112% | viability, T/C (second compound 1 µM, first compound 0.03 µM): 91.8% | viability, T/C (second compound 1 µM, first compound 0.0949 µM): 109% | viability, T/C (second compound 1 µM, first compound 0.3 µM): 110% | viability, T/C (second compound 1 µM, first compound 0.949 µM): 128% | viability, T/C (second compound 1 µM, first compound 3 µM): 97.9%

C=CC(=O)N1CCN(c2nc(=O)n(-c3c(C)ccnc3C(C)C)c3nc(-c4c(O)cccc4F)c(F)cc23)C(C)C1 (stereo unspecified)
viability, T/C (compound 0.0316 µM): 116% and 95.9% and 101% | viability, T/C (compound 0.1 µM): 99.4% and 96% and 86.8% | viability, T/C (compound 0.316 µM): 106% and 93.2% and 97.1% | viability, T/C (compound 1 µM): 101% (2×) and 100% | viability, T/C (compound 3.16 µM): 113% and 108% and 106% | viability, T/C (compound 10 µM): 110% and 106% and 109% | IC50 (curve of compound): > 10 µM
